Three compounds from patent US5192747A, “Anticoagulant peptides” (Merrell Dow Pharmaceuticals Inc., priority 1991, dated 1993) can be followed below.

This experiment has as its target Bovine thrombin (Bos taurus, UniProt P00735). In words: thrombin induced fibrin clot inhibition assay. In kind it is biochemical.

SMILES strings stand for the structures. Starred links: 1 amine or outer side, 2 acyl side, 3 side chain; linkers in the order of their positions; H or OH if unused. Non-standard residues stand in square brackets, D forms with d. Residues, ends and D or L forms follow the SMILES beside them. Cha = N[C@@H](CC1CCCCC1)C(=O)O; Suc = O=C(CCC(=O)[*:2])[*:1]

Method: Samples were tested in a thrombin induced fibrin clot inhibition assay. All the solutions of the assay were made with an assay buffer containing 0.12M sodium chloride, 0.01M sodium phosphate, 0.01% sodium azide and 0.1% bovine serum albumin, pH 7.4. […] This solution of thrombin (50 ul; 0.2 pmol) was added to the wells of a microtiter plate containing 50 ul of a solution of the synthetic peptide being tested. […] The turbidity of the solution was monitored by the autoreader at 5 min intervals. […] This is equivalent to a twofold increase in fibrin clot formation time. For the assays using human thrombin,, it and bovine thrombin were titrated to concentrations which gave the fibrin clot at the same rate over a 30 min period.

As usually defined, the IC50 is the point on the concentration scale where inhibition reaches its midpoint. A lower IC50 goes with greater potency. On to `CC[C@H](C)[C@H](NC(=O)[C@@H]1CCCN1C(=O)[C@H](CCC(=O)O)NC(=O)[C@H](Cc1ccc(O)cc1)NC(=O)CCC(=O)O)C(=O)N1CCC[C@H]1C(=O)N[C@@H](CCC(=O)O)C(=O)N[C@@H](CCC(=O)O)C(=O)N[C@@H](C)C(=O)N[C@@H](CC1CCCCC1)C(=O)O` [compound 18, Suc--Tyr--Glu--Pro--Ile--Pro--Glu--Glu--Ala--Cha--OH], for which the IC50 was less than 25 µM.

As for `CC[C@H](C)[C@H](NC(=O)[C@@H]1CCCN1C(=O)[C@H](CCC(=O)O)NC(=O)[C@H](Cc1ccc(O)cc1)NC(=O)CCC(=O)O)C(=O)N1CCC[C@H]1C(=O)N[C@@H](CCC(=O)O)C(=O)N[C@@H](CCC(=O)O)C(=O)N[C@@H](CC1CCCCC1)C(=O)N[C@@H](CCC(N)=O)C(N)=O` [compound 5, Suc--Tyr--Glu--Pro--Ile-- Pro--Glu--Glu--Cha--Gln--NH2] (Suc-YEPIPEE[Cha]Q-NH2), the IC50 was less than 25 µM. As for `CC[C@H](C)[C@H](NC(=O)[C@@H]1CCCN1C(=O)[C@H](CCC(=O)O)NC(=O)[C@H](Cc1ccc(O)cc1)NC(=O)CCC(=O)O)C(=O)N1CCC[C@H]1C(=O)N[C@@H](CCC(=O)O)C(=O)N[C@@H](CCC(=O)O)C(=O)N[C@@H](CC1CCCCC1)C(=O)N[C@H](CCC(=O)O)C(=O)O` [compound 15, Suc--Tyr--Glu--Pro--Ile--Pro--Glu--Glu--Cha--D-Glu--OH], the figure is less than 25 µM.
